Experimental data published in article PMC12164026, “Plant-derived nodule-specific cysteine-rich peptides as potent antifungal agents against Cryptococcus neoformans: mechanisms of action, chimeric peptide enhancement, and immunomodulatory effects” (Current Research in Microbial Sciences, 2025).
Converted amounts (≈) assume the structure as drawn. Read-outs that look alike come from different tables or passages of the source. Peptide text beside a SMILES is read from it.

How the values were obtained:
[1] = tested on: Cryptococcus neoformans IFM 5844; experiment: microbe, parasite or virus in culture; type: cell-based; settings: five-fold diluted YNB + 1 % dextrose, 5 × 10^4 cells/mL, 30 °C, 72 h, OD 620 nm, ≥ 90 % growth inhibition, tested 25 to 0.39 µM, three biological replicates; read-out: MIC
Experimental: (§1) The susceptibility of Cryptococcus neoformans IFM 5844 to 20 peptides (Supplementary Table 1) was tested in a widely used synthetic medium to cultivate yeasts (YNB) and in a serum-free medium what is able to support the proliferation of macrophage cells (X-VIVO).
YNB medium: five-fold diluted Difco Yeast Nitrogen Base w/o Amino Acids medium (Becton, Dickinson and Company, Sparks, MD, USA) supplemented with 1 % dextrose
(§2) The minimal inhibitory concentration (MIC) of each peptide was determined by using micro-dilution assay. The C. neoformans suspensions were adjusted to 5 × 10^4 cells/mL concentration in either YNB or X-VIVO medium. A 96-well microtiter plate was prepared by adding 95 µL suspension per well followed by 5 µL of serially two-fold diluted peptide solutions achieving a final volume of 100 µl. The concentration of the peptides ranged from 25 to 0.39 µM. For control samples, 5 µL pure medium was added to the yeast cell suspension instead of peptides. Plates were incubated at 37 °C for 48 h in X-VIVO medium and 30 °C for 72 h in YNB medium. After incubation, optical density was measured at 620 nm using a SPECTROstar Nano plate reader (BMG LabTech, Offenburg, Germany). […] The experiments were carried out in three independent biological replicates.

[2] = tested on: Cryptococcus neoformans IFM 5844; type: cell-based; settings: half-diluted X-VIVO 15 medium, 37 °C, 48 h, OD 620 nm, ≥ 90 % growth inhibition, tested 25 to 0.39 µM, three biological replicates
Experimental: as §1
X-VIVO medium: half-diluted X-VIVO™ 15 cell culture medium (Lonza, Verviers, Belgium).
as §2

[3] = tested on: Cryptococcus neoformans IFM 5844; experiment: Minimal fungicidal concentration (MFC) determination, spotting on YPD; type: cell-based; settings: cultures from MIC assays diluted and spotted onto solid YPD, 30 °C, 48 h
Experimental: Minimal fungicidal concentration (MFC) determination. To assess fungicidal activity, both control and peptide-treated cultures from the MIC assays were diluted 10-fold and 100-fold in sterile distilled water. Five µL from each dilution was then spotted onto solid YPD medium (1 % pepton, 1 % dextrose, 0.5 % yeast extract, 2 % agar). The plates were incubated at 30 °C for 48 h and fungal growth was evaluated. MFC was defined as the lowest peptide concentration at which no visible fungal growth was detected, indicating complete fungicidal activity.

[4] = tested on: C. neoformans IFM 5844 cells; experiment: Cell membrane permeability, calcein-AM assay by flow cytometry; type: cell-based, Cryptococcus neoformans; settings: half-MIC, 2 h, 30 °C, YNB
Experimental: The effect of the peptides on the cell membrane permeability of C. neoformans IFM 5844 cells was checked by flow cytometry with calcein-AM assay ([Olson, et al., 2001]). Calcein-acetoxymethyl ester (calcein-AM) is a membrane-permeable live-cell dye that, upon entering the cell, is cleaved by intracellular esterases, converting it into calcein, a membrane-impermeable fluorescent marker. The assay was carried out by suspending a total of 1 × 10^7 cells in 100 µl YNB medium containing 20 µg/mL indomethacin (Sigma-Aldrich, Saint Louis, MO, USA) and incubating them at 30 °C for 30 min to inhibit calcein transporters. Following this pre-treatment, membrane-permeable calcein-AM (Invitrogen, Waltham, MA, USA) was added to a final concentration of 5 µg/mL, and the samples were incubated at 30 °C for 3 h allowing the calcein-AM to enter the cells where esterases converted it to fluorescent calcein. After incubation, cells were washed twice with sterile distilled water and subsequently exposed to peptides at half-MIC concentrations in YNB medium for 2 h at 30 °C. Following peptide treatment, cells were washed twice with sterile distilled water, and fluorescence intensity was measured using a FlowSight® flow cytometer (Amnis-EMD Millipore) equipped with a 488-nm excitation laser. Intact cells stained with calcein-AM but not exposed to peptides served as controls. To ensure statistical reliability, four independent experiments were conducted, and fluorescence intensity was recorded from 10,000 cells per sample during each experiment.

[5] = tested on: J774.2 mouse macrophage cells; experiment: Cytotoxicity, MTT assay; type: cell-based; settings: 25 µM, 3 h, X-VIVO medium; for reduction in macrophage viability: relative to untreated control
Experimental: J774.2 cells were cultured as described previously and seeded into microtiter plates at a density of 5 × 10⁴ cells per well. The cells were incubated at 37 °C under 5 % CO₂ and 95 % relative humidity in X-VIVO™ medium until they adhered to the plate surface. Following attachment, cells were treated with peptides at their respective MIC concentrations in X-VIVO medium for 3 h under the same incubation conditions.
After peptide treatment, cells were washed with PBS (phosphate-buffered saline) and incubated in X-VIVO™ medium supplemented with 0.5 mg/mL MTT reagent (3-[4,5-dimethylthiazol-2-yl]−2,5-diphenyltetrazolium bromide, Merck KGaA, Darmstadt, Germany). The MTT assay was used to evaluate cell viability by staining live cells, leading to the formation of formazan crystals. These crystals were dissolved in dimethyl sulfoxide (DMSO), and absorbance was measured at 570 nm using a SPECTROstar Nano plate reader (BMG LabTech, Offenburg, Germany). The absorbance of untreated control cells was set as 100 % viability, and experimental results were expressed relative to this control. Each experiment was conducted in at least three independent biological replicates to ensure statistical reliability.

C. neoformans cells = experiment: Effect of X1-NCR247C and calcofluor white on CFU; type: cell-based, Cryptococcus neoformans; settings: calcofluor white 2.5 µg/mL alone, 20 min
Experimental: To assess the effect of X1-NCR247C peptide and calcofluor white, C. neoformans cells were subjected to different treatments. […] For staining, cells were treated with calcofluor white at 2.5 µg/mL for the same duration. As a control, cells were incubated only with calcofluor white for 20 min.
For combined treatment, cells were first exposed to calcofluor white (2.5 µg/mL) for 5 min, followed by the addition of X1-NCR247C (0.39 µM), and the incubation continued for 15 additional minutes. Following treatment, cells were washed once with sterile distilled water to remove residual peptide and dye. Serial 10-, 100-, 1000-, and 10,000-fold dilutions were prepared, and 50 µL from each dilution was plated onto solid YPD medium in triplicate. After 48 h of incubation at 30 °C, colony-forming units were counted to determine cell viability under each condition.

| SMILES | MIC [1] [µM] | MIC [2] [µM] | fungistatic or fungicide mode of action [3] | calcein leakage / membrane permeability disruption [4] | proportion of calcein-stained cells ([4]; stained untreated control 75 %, four independent experiments) [%] | reduction in macrophage viability [5] [%] | macrophage viability compared to untreated control ([5]; p ≤ 0.01) | effect on CFU counts (C. neoformans cells) |
| --- | --- | --- | --- | --- | --- | --- | --- | --- |
| CC[C@H](C)[C@H](NC(=O)[C@H](CCCCN)NC(=O)[C@H](CCCCN)NC(=O)[C@H](C)NC(=O)[C@H](CC(C)C)NC(=O)[C@H](C)NC(=O)[C@H](C)NC(=O)[C@H](CC(C)C)NC(=O)[C@H](C)NC(=O)[C@H](CCCCN)NC(=O)[C@H](CCCNC(=N)N)NC(=O)[C@H](CCCNC(=N)N)NC(=O)[C@H](CCCNC(=N)N)NC(=O)[C@H](CS)NC(=O)[C@H](Cc1ccc(O)cc1)NC(=O)[C@H](CC(C)C)NC(=O)[C@@H]1CCCN1C(=O)[C@H](CCCNC(=N)N)NC(=O)[C@H](CCCNC(=N)N)NC(=O)[C@H](CS)NC(=O)[C@H](CCC(N)=O)NC(=O)[C@@H](N)CCC(N)=O)C(=O)N[C@@H](CC(C)C)C(N)=O [NCR247C-X2] (H-QQCRRPLYCRRRKALAALAKKIL-NH2; N-terminus assumed) | 0.78 | 1.56 (≈ 4.3 µg/mL) | fungicidal effect | highest calcein leakage | 8 | – | – | – |
| CC[C@H](C)[C@H](NC(=O)[C@H](CS)NC(=O)CNC(=O)[C@H](CC(N)=O)NC(=O)[C@@H](N)CCCNC(=N)N)C(=O)N[C@H](C(=O)N[C@@H](CC(=O)O)C(=O)N1CCC[C@H]1C(=O)N[C@@H](CCCNC(=N)N)C(=O)N[C@@H](CS)C(=O)N1CCC[C@H]1C(=O)N[C@@H](Cc1ccc(O)cc1)C(=O)N[C@@H](CCC(N)=O)C(=O)N[C@@H](CCC(N)=O)C(=O)N[C@@H](CS)C(=O)N[C@@H](CCCNC(=N)N)C(=O)N[C@@H](CCCNC(=N)N)C(=O)N1CCC[C@H]1C(=O)N[C@@H](CC(C)C)C(=O)N[C@@H](Cc1ccc(O)cc1)C(=O)N[C@@H](CS)C(=O)N[C@@H](CCCNC(=N)N)C(=O)N[C@@H](CCCNC(=N)N)C(=O)N[C@@H](CCCNC(=N)N)C(N)=O)C(C)C [NCR247] (H-RNGCIVDPRCPYQQCRRPLYCRRR-NH2; N-terminus assumed) | – | – | fungicidal effect | – | – | 25 | – | – |
| CC[C@H](C)[C@H](NC(=O)[C@@H]1CCCN1C(=O)[C@@H](NC(=O)[C@H](CS)NC(=O)[C@H](Cc1ccc(O)cc1)NC(=O)[C@H](CO)NC(=O)[C@H](CCCCN)NC(=O)[C@H](CCCNC(=N)N)NC(=O)[C@H](CS)NC(=O)[C@H](CCCNC(=N)N)NC(=O)[C@@H](NC(=O)[C@H](CC(N)=O)NC(=O)[C@H](C)NC(=O)[C@H](CCCNC(=N)N)NC(=O)[C@H](CCCNC(=N)N)NC(=O)[C@H](CC(C)C)NC(=O)[C@@H](N)CCCCN)C(C)C)C(C)C)C(N)=O [NCR335C17–33] (H-KLRRANVRCRKSYCVPI-NH2; N-terminus assumed) | – | – | fungicidal effect | highest calcein leakage | – | 15 | – | – |
| CC[C@H](C)[C@H](NC(=O)[C@H](CCCCN)NC(=O)[C@H](CCCCN)NC(=O)[C@H](C)NC(=O)[C@H](CC(C)C)NC(=O)[C@H](C)NC(=O)[C@H](C)NC(=O)[C@H](CC(C)C)NC(=O)[C@H](C)NC(=O)[C@H](CCCCN)NC(=O)[C@H](CC(C)C)NC(=O)[C@H](CC(N)=O)NC(=O)[C@@H](NC(=O)[C@H](CCCCN)NC(=O)CNC(=O)[C@H](CC(C)C)NC(=O)[C@H](CC(C)C)NC(=O)[C@H](Cc1ccc(O)cc1)NC(=O)CNC(=O)[C@H](C)N)[C@@H](C)CC)C(=O)N[C@@H](CC(C)C)C(N)=O [TP10, reference compound] | 12.5 | – | – | – | – | – | significantly reduced macrophage viability | – |
| CC[C@H](C)[C@H](NC(=O)[C@H](CCCCN)NC(=O)[C@H](CCCCN)NC(=O)[C@H](C)NC(=O)[C@H](CC(C)C)NC(=O)[C@H](C)NC(=O)[C@H](C)NC(=O)[C@H](CC(C)C)NC(=O)[C@H](C)NC(=O)[C@@H](N)CCCCN)C(=O)N[C@@H](CC(C)C)C(=O)N[C@@H](CCC(N)=O)C(=O)N[C@@H](CCC(N)=O)C(=O)N[C@@H](CS)C(=O)N[C@@H](CCCNC(=N)N)C(=O)N[C@@H](CCCNC(=N)N)C(=O)N1CCC[C@H]1C(=O)N[C@@H](CC(C)C)C(=O)N[C@@H](Cc1ccc(O)cc1)C(=O)N[C@@H](CS)C(=O)N[C@@H](CCCNC(=N)N)C(=O)N[C@@H](CCCNC(=N)N)C(=O)N[C@@H](CCCNC(=N)N)C(N)=O [X2-NCR247C] (H-KALAALAKKILQQCRRPLYCRRR-NH2; N-terminus assumed) | 0.78 | 3.12 (≈ 8.6 µg/mL) | fungicidal effect | highest calcein leakage | – | – | – | – |
| O=S(=O)(O)c1cc(Nc2nc(Nc3ccccc3)nc(N(CCO)CCO)n2)ccc1/C=C/c1ccc(Nc2nc(Nc3ccccc3)nc(N(CCO)CCO)n2)cc1S(=O)(=O)O [calcofluor white, reference compound] | – | – | – | – | – | – | – | did not reduce CFU counts |
